What was measured:
S. pyogenes SAIMC 10535 = test: Broth microdilution MIC/MBC; assay type: cell-based, Streptococcus pyogenes; settings: 24 h exposure; v/v; n = 3
Description: (§1) The bacterial strains used for AST of the solvents included: Staphylococcus aureus (ATCC 29213), Staphylococcus aureus—MRSA (NBIMCC 8327—resistant to methicillin and oxacillin, National Bulgarian Collection for Industrial Microorganisms and Cell Cultures, Sofia, Bulgaria), Streptococcus pyogenes (SAIMC 10535, Collection of the Stephan Angeloff Institute of Microbiology, Sofia, Bulgaria), Enterococcus faecalis (ATCC 29212), Escherichia coli (ATCC 35218), Pseudomonas aeruginosa (ATCC 27853), and Yersinia enterocolitica (IP864 O:3, Collection of Institut Pasteur, Paris, France). The selected strains are the most often investigated ones in the AST research studies in correspondence with the standard ISO 20776-1 Part 1: Reference method for testing the in vitro activity of antimicrobial agents against rapidly growing aerobic bacteria involved in infectious diseases. The antimycotic activity was tested on Candida albicans (CBS 562, Utrecht, The Netherlands). The strains S. aureus, MRSA, E. coli and E. faecalis were grown on Mueller–Hinton broth/agar (MHB/MHA); S. pyogenes, P. aeruginosa, Y. enterocolitica and C. albicans were grown on brain heart infusion (BHI) broth/agar; E. coli was also grown on Luria–Bertani broth/agar (LBB/LBA).
(§2) The minimum inhibitory concentration (MIC) for each solvent was estimated by the broth microdilution method (BMD) in 96-well microplates, following ISO 20776/1-2006 [3] and CLSI protocols. Briefly, a standardized bacterial inoculum was prepared from each bacterial species by suspending 3–4 colonies from a pure culture into 4 mL sterile saline. The turbidity of the inocula was adjusted to McFarland 0.5 (1.0 × 10^8 CFU/mL, λ = 600 nm), and 50 µL were resuspended in 10 mL of the appropriate culture medium for each strain. The bacterial inocula were added to microtiter trays containing equivalent volumes of medium loaded with the relevant solvent in concentrations varying from 0.025 to 25% volume fraction. The final volume of each sample was 100 µL/well. The plates were incubated at 37 °C for 24 h. The pure culture medium served as a negative control. Every MIC was evaluated visually as the lowest concentration without visible growth. […] MBC was defined as the lowest compound’s concentration reducing the colony growth of the initial bacterial inoculum by ≥ 99.9%.

[1] = test system: HaCaT (immortalized human keratinocytes); test: MTT dye-reduction cytotoxicity assay (ISO 10993-5); assay type: cell-based; settings: solvent alone, n = 3; for MTC (maximum tolerated concentration): 72 h, at least 70% of cells viable; for IC50 (CI 95%): 72 h incubation
Description: The cell lines utilized in this study included the human tumor lines A-375 (malignant melanoma) and A-431 (non-melanoma epidermoid squamous skin carcinoma) as well as the models for non-tumorigenic cells—HaCaT (immortalized human keratinocytes) and CCL-1^TM (transformed mouse fibroblasts, NCTC clone 929). The first three cell lines were obtained from CLS Cell Lines Service (GmbH, Eppelheim, Germany). CCL-1^TM was purchased from the American Type Culture Collection (ATCC, Manassas, VA, USA). Cells were maintained in a controlled environment—sterile cell culture flasks in a CO2 incubator Panasonic MCO-18AC (Panasonic Healthcare co., ltd, Oizumi-Machi, Japan) at 37 °C and a humidified atmosphere containing 5% CO2. CCL-1 was cultured in MEM with 10% heat-inactivated horse serum and 2 mM L-glutamine, and the cell culture medium for the rest of the cell lines was DMEM-HG with 4.5 g/L glucose with the addition of 10% heat-inactivated fetal bovine serum and 4 mM L-glutamine. Pen/strep (concentration of penicillin G sodium 10^5 Units/L and of streptomycin sulfate 100 mg/L) was added to both culture media. The cell lines were maintained as an adherent monolayer in a log phase. The cells were sub-cultivated about 1–3 times per week after the monolayer reached 80–90% confluence. The medium was removed from the flask, and the cell monolayer was washed with 3–5 mL PBS. The cells were incubated with 0.05% EDTA in PBS for 8–10 min, followed by the next step where all cell lines were subjected to enzyme cell detachment. HaCaT and CCL-1 monolayers were detached with 1 mL solution of trypsin/EDTA (0.1%/0.05% for HaCaT and 0.25% (w/v)/0.53 mM for CCL-1) and incubated for 2–5 min at 37 °C (for HaCaT) or at room temperature (for CCL-1 cells), whereas Accutase® was used for A-375 and A-431 lines. The incubation lasted until the separation and dispersion of the cells in the monolayer were observed using light microscopy. In the end, all cell lines were resuspended in 10 mL medium and centrifuged for 3 min at 300× g. The cell pellet was resuspended in fresh medium and sub-cultivated at a seeding density of 1.0 × 10^4 cells/cm^2.
The MTT test was performed in order to determine the median inhibitory (IC50) and MTC concentrations of the solvents and PAC according to Annex C, ISO 10993-5 [2, 21]. Briefly, 100 µL of the cell suspension (1 × 10^5 cells/mL) were seeded per well in 96-well plates with a flat bottom. The cells were incubated for 24 h, allowing them to enter the log phase of their growth. On the 24th hour, the cells were treated with the solvents or CystiCran® solutions in concentrations ranging between 0.004% and 2% volume fraction (v/v) and incubated further for 72 h. The incubation periods are following the recommendations of the FDA guide for the use of ISO 10993-1 [1]. At the end of the incubation period, 10 µL of an MTT solution (5 mg/mL) were added to each well, and the plates were kept at 37 °C for 2 hours. Thereafter, the medium was aspirated, and the formed formazan crystals were dissolved in 100 μL/well of 2-propanol supplemented with 5% formic acid. The same solvent was used as a blank. Untreated cells were considered as a negative control. […] The absorption was measured at 540 nm (reference filter at 690 nm) on a microplate reader ELx800 (BioTek Instruments, Inc., Winooski, VT, Winooski, VT, USA).
The IC50 values from the MTT assay were evaluated with a non-linear regression analysis (Curve fit, GraphPad Prizm 6.01 software, GraphPad Software Inc., San Diego, CA, USA) using sigmoidal concentration–response curves. The cell viability is presented as a percentage of the untreated control. At least four wells were seeded for every concentration. Three independent assays were performed (n = 3).

E. faecalis ATCC 29212 = test: Broth microdilution MIC/MBC; assay type: cell-based, Enterococcus faecalis; settings: 24 h exposure; v/v; n = 3
Description: as §1, §2

[2] = test system: Y. enterocolitica IP 864 O: 3; test: Broth microdilution MIC/MBC; assay type: cell-based, Yersinia enterocolitica; settings: 24 h exposure; v/v; n = 3
Description: as §1, §2

P. aeruginosa ATCC 27853 = test: Broth microdilution MIC/MBC; assay type: cell-based, Pseudomonas aeruginosa; settings: 24 h exposure; v/v; n = 3
Description: as §1, §2

Compound | MBC (S. pyogenes SAIMC 10535) [%] | MIC (S. pyogenes SAIMC 10535) [%] | MTC (maximum tolerated concentration) [1] | IC50 (CI 95%) [1] | MBC (E. faecalis ATCC 29212) [%] | MIC (E. faecalis ATCC 29212) [%] | MBC [2] [%] | MIC [2] [%] | MBC (P. aeruginosa ATCC 27853) [%] | MIC (P. aeruginosa ATCC 27853) [%]
CCO [EtOH, ethanol] | >25 | >25 | > 2 % (v/v) | > 2 % (v/v) | >25 | >25 | >25 | >25 | >25 | >25
polyethylene glycol of average molecular weight 400 [PEG-400] | >25 | 25 | 0.41 % (v/v) |  | >25 | 25 | 12.5 | 12.5 | >25 | 25
C[S+](C)[O-] [DMSO, dimethyl sulfoxide] | >25 | 12.5 |  | 1.25 % (v/v) | >25 | 12.5 | 6.25 | 3.125 | >25 | 6.25

Source: PMC8143291, “Cytotoxicity and Microbicidal Activity of Commonly Used Organic Solvents: A Comparative Study and Application to a Standardized Extract from Vaccinium macrocarpon” (Toxics, 2021)
